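Each compound was tested at five concentrations against cells in 96-well plates for 48 hours. At the GI50, growth is halved.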 The source made the active and inactive calls. Cut-off read from the data, not from the text of the source: active = GI50 up to about 1.1 µM and inactive = higher.

The values that follow come from ChEMBL document CHEMBL1201862, “PubChem BioAssay data set” (2004).

Holding throughout (experiment): growth of human tumour cells (NCI), 48 h
Assay [1] concerns A498.
Assay [2] concerns A549.
Assay [3] deals with CAKI-1.
The subject of assay [4] is CCRF-CEM.
The test system of assay [5] is DU-145.
Assay [6] relates to HCT-15.
Assay [7] has as its system HOP-62.
For assay [8], the system named is HT-29.
Assay [9] relates to IGROV-1.
Assay [10] has as its system K562.
Assay [11] has as its system KM12.
Assay [12] concerns MCF7.
Assay [13] has as its system MDA-MB-231.
Assay [14] relates to MOLT-4.
For assay [15], the system named is NCI-H23.
The test system of assay [16] is RPMI-8226.
Assay [17] concerns SF-539.
In assay [18] the test system is SNB-75.
The subject of assay [19] is U-251.
The subject of assay [20] is UACC-62.

Turning to `COc1ccc(/C=C2\N/C(=N\N=C/C(O)C(O)C(O)C(O)CO)NC2=O)cc1` (stereo not drawn), the GI50 in [1] was 26.9 µM (inactive); in [2], > 100 µM (inactive); in assay [3], > 100 µM (inactive); in assay [4] it was 38.1 µM (inactive); in assay [5], 30.4 µM (inactive); in [6], above 100 µM. Further, the GI50 was 24.9 µM (inactive) in assay [7]; 71.8 µM (inactive) in assay [8]; 73.6 µM (inactive) in assay [9]; 62.8 µM (inactive) in [10]; 30 µM (inactive) in assay [11]; 23.1 µM (inactive) in assay [12]. For the same compound, the GI50 in [13] is 32.7 µM (inactive); in assay [14], 8.63 µM (inactive); in [15], 23.6 µM (inactive); in assay [16] it was > 100 µM (inactive); in assay [17], 19.6 µM (inactive); in assay [18], 22.1 µM (inactive). The GI50 in assay [19] is 20.7 µM (inactive).

With `CC(C)=NOC(=O)Nc1cccc2c1OCO2`, the GI50 in [1] was > 100 µM (inactive); in assay [2] it was > 100 µM (inactive); in assay [3], > 100 µM (inactive); in [5] it was > 100 µM (inactive); in [6], above 100 µM; in assay [7] it was > 100 µM (inactive). Besides, the GI50 in assay [8] was > 100 µM (inactive); in assay [9] it was > 100 µM (inactive); in [11], 71.1 µM (inactive); in assay [12] it was > 100 µM (inactive); in [13] it was > 100 µM (inactive); in assay [14], > 100 µM (inactive). Besides, the GI50 is > 100 µM (inactive) in assay [15]; > 100 µM (inactive) in assay [16]; > 100 µM (inactive) in [17]; > 100 µM (inactive) in assay [18]; > 100 µM (inactive) in assay [19]; 32.5 µM (inactive) in assay [20].

Consider `CC(=O)O[C@H]1C[C@H]2[C@@H](OC(C)=O)/C=C3\C[C@](C)(C(=O)[C@H](O)C(=C1C)C2(C)C)[C@@H](O)C[C@@H]3OC(=O)[C@H](O)[C@H](c1ccccc1)N(C)C`, for which the GI50 in [1] is > 100 µM (inactive); in assay [2], > 100 µM (inactive); in [3], > 100 µM (inactive); in [4] it was > 100 µM (inactive); in assay [5] it was > 100 µM (inactive); in assay [6], above 100 µM. Further, the GI50 in assay [7], in [9], in assay [10], in assay [11], in assay [12] and in [13] was > 100 µM (inactive) throughout. Moreover, the GI50 in assay [14], in [15], in assay [16], in assay [17], in assay [18] and in assay [19] was > 100 µM (inactive) throughout. Besides, the GI50 in [20] was > 100 µM (inactive).

For the compound `CCOC(=O)CO/N=C\C1=CC(=O)C2CC1C2(C)C` (stereo not drawn), the GI50 in assay [1] is > 100 µM (inactive); in assay [3], > 100 µM (inactive); in assay [4], > 100 µM (inactive); in assay [5], > 100 µM (inactive); in [6] it was above 100 µM; in assay [8], > 100 µM (inactive). For the same compound, the GI50 in [9], in assay [10], in [11], in assay [12], in assay [13] and in assay [14] was > 100 µM (inactive) in each case. In addition, the GI50 was > 100 µM (inactive) in assay [15]; > 100 µM (inactive) in assay [16]; > 100 µM (inactive) in assay [17]; 30.1 µM (inactive) in assay [18]; > 100 µM (inactive) in assay [19]; > 100 µM (inactive) in assay [20].

For `COc1ccc2oc(=O)c(CC=C(C)C)c(O)c2c1C`, the GI50 is > 100 µM (inactive) in assay [1]; > 100 µM (inactive) in assay [2]; > 100 µM (inactive) in [3]; > 100 µM (inactive) in [4]; > 100 µM (inactive) in assay [5]; above 100 µM in assay [6]. Moreover, the GI50 in assay [7], in assay [8], in [9], in assay [10], in [11] and in assay [12] was > 100 µM (inactive) throughout. For the same compound, the GI50 is > 100 µM (inactive) in [13]; 36.4 µM (inactive) in assay [14]; > 100 µM (inactive) in assay [15]; > 100 µM (inactive) in [16]; > 100 µM (inactive) in assay [17]; > 100 µM (inactive) in [18]. The GI50 in assay [19] and in [20] was > 100 µM (inactive) each time.

Consider `CCOP(=O)(OCC)C(N)Cc1ccc(OC)c(OC)c1` (stereo not drawn), for which the GI50 was > 100 µM (inactive) in assay [1]; > 100 µM (inactive) in assay [2]; > 100 µM (inactive) in [3]; > 100 µM (inactive) in [4]; > 100 µM (inactive) in [5]; above 100 µM in assay [6]. Moreover, the GI50 was > 100 µM (inactive) in assay [8]; > 100 µM (inactive) in assay [9]; > 100 µM (inactive) in assay [10]; > 100 µM (inactive) in assay [11]; 45.3 µM (inactive) in assay [12]; > 100 µM (inactive) in [13]. For the same compound, the GI50 in assay [14], in assay [15], in [16], in assay [17], in assay [18] and in assay [19] was > 100 µM (inactive) each time. Also, in [20], the GI50 was > 100 µM (inactive).

Turning to `O=C1CSC(c2cc3cc(Br)ccc3nc2Cl)N1c1ccc(Cl)cc1` (stereo not drawn), the GI50 in [1] is 36 µM (inactive); in assay [2] it was 28.1 µM (inactive); in [3], 18.5 µM (inactive); in assay [4], 7.71 µM (inactive); in assay [5] it was 34.4 µM (inactive); in assay [6], 16.8 µM. Further, the GI50 is 25.8 µM (inactive) in assay [7]; 32.9 µM (inactive) in [8]; 16.8 µM (inactive) in assay [9]; 7.33 µM (inactive) in [10]; 13 µM (inactive) in assay [11]; 17.9 µM (inactive) in assay [12]. Also, the GI50 in [13] is 33.1 µM (inactive); in assay [14], 17.4 µM (inactive); in [15], 31.3 µM (inactive); in assay [16] it was 25.4 µM (inactive); in assay [17], 17.7 µM (inactive); in [18] it was 52.2 µM (inactive). Moreover, the GI50 in assay [20] is 5.87 µM (inactive).

As to `COc1ccc(/C=C2/S/C(=N\c3ccccc3)N(NC(=O)Cc3ccccc3)C2=O)cc1`, the GI50 is > 100 µM (inactive) in [1]; > 100 µM (inactive) in assay [2]; > 100 µM (inactive) in assay [4]; > 100 µM (inactive) in assay [5]; above 100 µM in [6]; > 100 µM (inactive) in [7]. For the same compound, the GI50 in [8], in assay [9], in assay [10], in assay [11], in assay [12] and in [13] was > 100 µM (inactive) throughout. The GI50 in [14], in [15], in [16], in assay [17], in assay [18] and in assay [19] was > 100 µM (inactive) throughout. Moreover, the GI50 in assay [20] is > 100 µM (inactive).

On to `OCC12C3C4C5C3C1C5C42` (stereo not drawn), for which the GI50 in assay [1] was > 100 µM (inactive); in [2], > 100 µM (inactive); in [3] it was > 100 µM (inactive); in assay [4], > 100 µM (inactive); in [5], > 100 µM (inactive); in assay [6], above 100 µM. Further, the GI50 in assay [7] is > 100 µM (inactive); in [8] it was > 100 µM (inactive); in assay [9], 47.3 µM (inactive); in assay [10], > 100 µM (inactive); in assay [12], > 100 µM (inactive); in [13], > 100 µM (inactive). Moreover, the GI50 in assay [14], in assay [15], in assay [17], in [18], in assay [19] and in assay [20] was > 100 µM (inactive) throughout.

For `Cc1c(S(=O)(=O)O)ccc(/N=N/c2c(O)c(C(=O)O)cc3ccccc23)c1Cl`, the GI50 in [1] is > 100 µM (inactive); in assay [2], > 100 µM (inactive); in assay [3], > 86.5 µM (inactive); in assay [4] it was > 100 µM (inactive); in assay [5] it was > 100 µM (inactive); in assay [6], above 100 µM. In addition, the GI50 in [7], in [8], in assay [9], in [10], in [11] and in assay [12] was > 100 µM (inactive) throughout. In addition, the GI50 was > 49.8 µM (inactive) in [13]; > 100 µM (inactive) in [14]; > 100 µM (inactive) in [15]; > 100 µM (inactive) in assay [16]; > 100 µM (inactive) in assay [18]; > 92.5 µM (inactive) in assay [19]. The GI50 in [20] is > 100 µM (inactive).
